Source: US8709511B2, “External preparation composition for skin comprising ginseng flower or ginseng seed extracts” (Amorepacific Corporation, priority 2008, dated 2014)

Key:
[1] = tested on: human HaCaT keratinocyte monolayer culture system; experiment: Inhibition of reactive oxygen species production after UVB (DCFH-DA fluorescence); format: cell-based
Procedure: Antioxidative effect of the ginseng flower extract and the ginseng seed extract was investigated by comparing the capacity of removing reactive oxygen species (ROS) produced in cells in response to UV radiation. The positive control group for the ginseng flower extract was treated with vitamin C (Sigma Co.), which is commonly used to compare antioxidative effect. And, the control group was left untreated. A human HaCaT keratinocyte monolayer culture system (P. Boukamp, German Cancer Research Center, Heidelberg, Germany) was treated with UV (UVB 30 mJ/cm^2) and then with the extract prepared in Example 1 at 10 ppm, 50 ppm and 100 ppm. Then, 2′,7′-dichlorodihydrofluorescein diacetate (DCFH-DA; Molecular Probes, Inc.) was measured with a fluorescence plate reader. Production of ROS was calculated relative to the UV-untreated control group. The positive control group for the ginseng seed extract was treated with Trolox (Aldrich Co.), which is commonly used to compare antioxidative effect. And, the control group was left untreated. […] Then, DCFH-DA (Molecular Probes, Inc.) was measured with a fluorescence plate reader. Inhibition of ROS production was calculated relative to the UV-treated control group.

Human normal fibroblasts = experiment: Inhibition of oxidative damage of DNA by single cell gel electrophoresis (comet assay), H2O2 challenge; format: cell-based; conditions: 10 ppm
Procedure: Human normal fibroblasts were cultured for 24 hours and treated with varying concentrations of the ginseng flower extract prepared in Example 1, the ginseng seed oil prepared in Example 2, the ginseng seed residue extract prepared in Example 3 and vitamin E. After 12 hours, the cells were treated with the positive control H2O2 (final concentration: 10^−3 M), stained by electrophoresis, and then observed with a fluorescence microscope. The image analyzer Komet 3.1 (Kinetic Imaging, England) was used to analyze the tail length (μm) resulting from the digestion of DNA in each of 25 cells.

[2] = tested on: C57BL/6 mouse melanocytes (Mel-Ab cells); experiment: Melanin synthesis inhibition using mouse melanocytes (Dooley's method); format: cell-based; conditions: 72 h, 3 days
Procedure: Mouse melanocytes were used to examine the melanin synthesis inhibitory effect of the ginseng flower extract prepared in Example 1, the ginseng seed oil prepared in Example 2 and the ginseng seed residue extract prepared in Example 3.
First, C57BL/6 mouse melanocytes (Mel-Ab cells; Dooley, T. P. et al., Skin Pharmacol., 7, pp. 188-200) were cultured in Dulbecco's modified Eagle's medium (DMEM) containing 10% fetal bovine serum, 100 nM 2-O-tetradecanoylphorbol-13-acetate and 1 nM cholera toxin under the condition of 37° C. and 5% CO2 . The cultured Mel-Ab cells were detached with 0.25% trypsin-EDTA and cultured in a 24-well culture plate at a concentration of 10^5 cells/well. Then, from day 2 of culture, each of 10 ppm, 50 ppm and 100 ppm of the ginseng flower extract (Example 1), the ginseng seed oil (Example 2) and the ginseng seed residue extract (Example 3) was continuously added thereto and cultured for 3 days. The positive control group was treated with arbutin (Sigma Co.). Then, the culture media were removed, and the cells were washed with PBS and lysed with 1 N sodium hydroxide. The lysed cells were measured for absorbance at 400 nm, and then the inhibition of melanin production was calculated according to Equation 2. […] Melanin synthesis inhibition (%)=100−[(Absorbance of each test material/Absorbance of control)×100] […]

[3] = tested on: type I procollagen in human fibroblasts; experiment: Type I procollagen assay (ELISA); format: cell-based; conditions: 10 ng/mL, 3 days; positive control set to 100
Procedure: Human fibroblasts were cultured in a 12-well culture plate at a concentration of 10 ^5 cells/well, and then the medium was replaced with media containing 1 ppm, 10 ppm and 50 ppm of the ginseng flower extract prepared in Example 1 or with media containing 1 ppm and 10 ppm of the ginseng seed oil prepared in Example 2 or the ginseng seed residue extract prepared in Example 3, as shown in Table 4. At 3 days of culture, the cells were harvested, and the amount of the produced type I procollagen was quantified using an ELISA method. The measurement results were calculated relative to 0 for the control group containing neither the ginseng flower extract nor the ginseng seed extract and 100 for the positive control group (human transforming growth factor-β1 (TGF-β1, Roche Co.)).

[4] = tested on: UVB-darkened human skin (upper arm); experiment: Whitening on human skin after UVB-induced darkening (colorimeter); format: in vivo; conditions: applied on UVB-irradiated upper arm for 10 weeks; vehicle 0.51 ± 0.13
Procedure: In order to examine the whitening effect of the ginseng flower extract prepared in Example 1, the ginseng seed oil prepared in Example 2 and the ginseng seed residue extract prepared in Example 3 on human skin, the following test was carried out.
First, for 12 healthy men, a 1.5-cm perforated opaque tape was attached to the upper arm portion of the subjects, and then the attached portion was irradiated with UVB at a dose of about 1.5-2 times the minimal erythemal dose of each subject to induce skin darkening.
The color of the skin was measured with the colorimeter CR2002 (Minolta, Japan) at 1-week intervals.
Then, the difference in skin color (ΔL*) between the time point of initiation of application and the time point of completion of application of each test material was calculated according to Equation 3, and the calculation results are shown in Table 8. The whitening effect is evaluated by measuring the ΔL* value between the sample-applied portion and the control portion. […] L*=L* value at the time of completion of application−L* value at the time of initiation of application [Equation 3]

[5] = tested on: matrix metalloproteinase 1 (MMP-1) in human fibroblasts; experiment: Inhibition of UVB-induced MMP-1 expression (ELISA); format: cell-based; conditions: UVB 40 mJ/cm^2, 10 μM, 2 days; non-UV = 100, UV alone 152
Procedure: Human fibroblasts were cultured in a 12-well culture plate at a concentration of 10^5 cells/well, and then irradiated with 40 mJ/cm ^2 of UVB. Then, the culture medium was replaced with media containing 1 ppm, 10 ppm and 50 ppm of the ginseng flower extract prepared in Example 1. At 2 days of culture, the cells were harvested, and the amount of produced matrix metalloproteinase 1 (MMP-1) was quantified using an ELISA method. The measurement results were calculated relative to 100 for the non-UV-irradiated control group not treated with the test material. The positive control group was treated with retinoic acid (RA, Sigma Co.).

## O=C1O[C@H]([C@@H](O)CO)C(O)=C1O [vitamin C]
[1]; UVB 30 mJ/cm^2, 100 μM, relative to UV-untreated control = 100 (UVB alone 161)
  ROS production (%): 72%

## vitamin E
Human normal fibroblasts; 12 h before H2O2 10^-3 M, control 112.4
  Tail length (μm): 68.9 μm
Human normal fibroblasts; inhibition of oxidative DNA damage (tail length) vs control
  Inhibition (%): 38.7%

## OC[C@H]1O[C@@H](Oc2ccc(O)cc2)[C@H](O)[C@@H](O)[C@@H]1O [Arbutin, arbutin]
[2]
  inhibition at 100 ppm: 51%

## Cc1c(C)c2c(c(C)c1O)CCC(C)(C(=O)O)O2 (centres unmarked) [Trolox]
[1]; UVB 30 mJ/cm^2, 0.1 mM, relative to UV-treated control
  Inhibition of ROS production (%): 42.7%

## TGF-β1: human transforming growth factor-β1 (Roche Co.), positive control
[3]
  Type I procollagen biosynthesis (%): 100%

## Oc1ccc(O)cc1 [Hydroquinone, hydroquinone]
[4]
  Skin color brightness (ΔL*): 1.89 ± 0.15

## CC1=C(/C=C/C(C)=C/C=C/C(C)=C/C(=O)O)C(C)(C)CCC1 [RA, retinoic acid]
[5]
  MMP-1 biosynthesis (%): 45%
